Laboratory results as given in patent publication US6376502B1, “Osteoporosis compounds” (priority 1997, dated 2002).

Key:
[1] = system: Bone Morphogenetic Protein 7 (BMP-7) expression in 293S cells transfected with EP2; test: Kidney regeneration assay: BMP-7 expression by Northern blot in EP2 293S cells; assay type: cell-based, human; conditions: 10^-6M, RNA at 8, 16 and 24 hours, time dependent
Procedure: (§1) 293S and EP2 293S cells are grown in Dulbecco's Modified Egale medium (DMEM, Gibco, BRL; Gaithersburg, Md.). […] Cells are harvested and RNA is extracted at 8, 16 and 24 hours. Northern blot analysis of total ([…]) is carried out by probing the blots with ^32P-labeled BMP-7 probe. The blots are normalized for RNA loading by hybridization with ^32P-labeled 18s ribosomal RNA probe. […] Given the known role of BMP-7 in kidney regeneration and the ability of an prostaglandin agonist to induce BMP-7 expression in 293S kidney cells in a time and receptor specific manner indicates a role for prostaglandin agonist in kidney regeneration.

[2] = system: Bone Morphogenetic Protein 7 (BMP-7) expression in wild type 293S cells; test: Kidney regeneration assay: BMP-7 expression by Northern blot in wild type 293S cells; assay type: cell-based, human; conditions: parental 293S cell line, 10^-6M, RNA at 8, 16 and 24 hours
Procedure: as §1

`CCCCC[C@H](O)/C=C/[C@H]1[C@H](O)CC(=O)[C@@H]1C/C=C\CCCC(=O)O` [PGE2, Prostaglandin E2] was tested, and the “induction of BMP-7 expression” value [1] was “induce the expression of BMP-7” and the “induction of BMP-7 expression” value [2] was “generally not observed”.
